Assay results published in US20230203003A1, “Notch Inhibitors and Uses Thereof” (StemSynergy Therapeutics, Inc., priority 2020, published 2023).
Structures can show the parent of a compound that is named as a salt. Where two headings read alike, the source gives them in different places.

Target: T1, hNotch1ICD (Homo sapiens, UniProt P46531)
T1 construct: pLV[Tet]-Puro-TRE3G>Notch1-ICD; expressed in transfected cells; host or cells: 293A cells
Assay: Notch1 Reporter Assay (Dox-inducible Notch1-ICD, CSL-responsive luciferase in 293A cells)
Type: cell-based
Settings: read-out: Notch1 Reporter Assay IC50
Method: 293A cells expressing 1) pCMV-Tet-On 3G, 2) pLV[Tet]-Puro-TRE3G>Notch1-ICD, 3) pLV[Tet]-Puro-TRE3G>Notch2-ICD, 4) pLV[Tet]-Puro-TRE3G>Notch3-ICD, and 5) pCSL-RElement-Luc were used. When Doxycycline is added, the Tet-ON gene activates expression of hNotch1ICD, which together with endogenous NTC components binds to CSL responsive elements (pCSL-RElement-Luc) and expresses luciferase. 1 ×× 10^4 cells are plated in 100 µL (96-well format). 24 h later, compounds (10 mM stock in DMSO) are diluted in DMSO to 200X, then added (5 ul into 1 mL) to cell culture media containing 50 ng/mL Dox. This is then added 1:1 to cells. Final DMSO = 0.25%, Dox = 25 ng/mL. After 24 h, media is discarded, and cells are lysed in passive lysis buffer (Promega). Cells are rocked at room temperature for 15 min and then lysate is divided for luciferase assay (Luciferase Assay System, Promega) and cell viability (CellTiter Glo 2.0, Promega). Raw luciferase is normalized to cell viability, and then scaled to DMSO wells. Results are analyzed and IC50′s are determined in GraphPad by nonlinear regression curve fitting (4 parameter) of dose response curves.

[1] = 293A cells, 24 h, luciferase normalized to cell viability
[2] = value printed in the synthesis heading of the compound

T1 sequence (P46531 1754-2555 limits assumed): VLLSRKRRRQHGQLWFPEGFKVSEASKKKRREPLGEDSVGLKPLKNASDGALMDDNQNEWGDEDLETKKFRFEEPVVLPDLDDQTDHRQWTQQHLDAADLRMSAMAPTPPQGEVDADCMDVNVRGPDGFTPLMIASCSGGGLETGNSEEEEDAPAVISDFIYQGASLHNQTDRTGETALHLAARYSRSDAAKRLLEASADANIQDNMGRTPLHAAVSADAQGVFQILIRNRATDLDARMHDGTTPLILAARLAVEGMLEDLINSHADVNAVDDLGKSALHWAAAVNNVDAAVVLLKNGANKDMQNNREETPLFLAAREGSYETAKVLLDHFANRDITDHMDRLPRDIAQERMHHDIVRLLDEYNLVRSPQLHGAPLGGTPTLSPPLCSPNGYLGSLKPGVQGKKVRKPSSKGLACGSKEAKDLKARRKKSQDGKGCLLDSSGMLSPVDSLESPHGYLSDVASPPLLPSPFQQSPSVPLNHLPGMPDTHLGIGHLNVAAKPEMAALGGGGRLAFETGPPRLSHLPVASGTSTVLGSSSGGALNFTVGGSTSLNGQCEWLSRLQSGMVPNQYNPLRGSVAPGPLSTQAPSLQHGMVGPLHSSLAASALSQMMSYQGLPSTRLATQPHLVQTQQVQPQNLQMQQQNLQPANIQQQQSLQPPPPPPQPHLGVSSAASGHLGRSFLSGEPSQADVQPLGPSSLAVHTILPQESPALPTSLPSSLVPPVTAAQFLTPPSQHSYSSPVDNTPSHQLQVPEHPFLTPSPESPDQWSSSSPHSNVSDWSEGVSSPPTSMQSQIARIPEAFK

IC50 [2] [µM]	SMILES	IC50 [1] [µM]
21.5	CC(C)Cn1c(=O)c(C(=O)Nc2ccccc2N2CCN(C)CC2)c(O)c2ccccc21 [SSTN-568, 4-hydroxy-1-isobutyl-N-(2-(4-methylpiperazin-1-yl)phenyl)-2-oxo-1,2-dihydroquinoline-3-carboxamide]	
8.42	CC(C)Cn1c(=O)c(C(=O)Nc2ccc(N3CCN(C)CC3)cc2)c(O)c2ccccc21 [SSTN-569, 4-hydroxy-1-isobutyl-N-(4-(4-methylpiperazin-1-yl)phenyl)-2-oxo-1,2-dihydroquinoline-3-carboxamide]	
6.5	CC(C)Cn1c(=O)c(C(=O)Nc2ccc(F)cc2N2CCN(C)CC2)c(O)c2ccccc21 [SSTN-570, N-(4-fluoro-2-(4-methylpiperazin-1-yl)phenyl)-4-hydroxy-1-isobutyl-2-oxo-1,2-dihydroquinoline-3-carboxamide]	
17.7	CC(C)Cn1c(=O)c(C(=O)Nc2ccc(N3CCN(C)CC3)c(F)c2)c(O)c2ccccc21 [SSTN-572, N-(3-fluoro-4-(4-methylpiperazin-1-yl)phenyl)-4-hydroxy-1-isobutyl-2-oxo-1,2-dihydroquinoline-3-carboxamide]	
9.69	CC(C)Cn1c(=O)c(C(=O)Nc2cccc(F)c2)c(O)c2cc(N3CCN(C)CC3)ccc21 [SSTN-577, N-(3-fluorophenyl)-4-hydroxy-1-isobutyl-6-(4-methylpiperazin-1-yl)-2-oxo-1,2-dihydroquinoline-3-carboxamide]	
18.4	Cc1cccnc1NC(=O)c1c(O)c2cc(N3CCN(C)CC3)ccc2n(CC(C)C)c1=O [SSTN-579, 4-hydroxy-1-isobutyl-6-(4-methylpiperazin-1-yl)-N-(3-methylpyridin-2-yl)-2-oxo-1,2-dihydroquinoline-3-carboxamide]	
8.13	CC(C)Cn1c(=O)c(C(=O)Nc2cc(F)cc(N3CCN(C)CC3)c2)c(O)c2ccccc21 [SSTN-583, N-(3-fluoro-5-(4-methylpiperazin-1-yl)phenyl)-4-hydroxy-1-isobutyl-2-oxo-1,2-dihydroquinoline-3-carboxamide]	

Further lines, the compound ahead of its results:

SMILES	IC50 [2] [µM]	IC50 [1] [µM]
CC(C)Cn1c(=O)c(C(=O)Nc2ccc(N3CCN(C)CC3)cc2)c(O)c2ccccc21 [569(01)]		8.4
CC(C)Cn1c(=O)c(C(=O)Nc2ccc(F)cc2N2CCN(C)CC2)c(O)c2ccccc21 [570(01)]		6.5
CC(C)Cn1c(=O)c(C(=O)Nc2cccc(F)c2)c(O)c2cc(N3CCN(C)CC3)ccc21 [577(01)]		9.7
Cc1cccnc1NC(=O)c1c(O)c2cc(N3CCN(C)CC3)ccc2n(CC(C)C)c1=O [579(01)]		18.4
Cc1cccnc1NC(=O)c1c(O)c2ccc(N3CCN(C)CC3)cc2n(CC(C)C)c1=O [580(01)]		13.3
Cc1cccnc1NC(=O)c1c(O)c2ccc(N3CCN(C)CC3)cc2n(CC(C)C)c1=O [580(02)]		14
CC(C)Cn1c(=O)c(C(=O)Nc2cccc(F)c2N2CCN(C)CC2)c(O)c2ccccc21 [581(01)]		7.8
CC(C)Cn1c(=O)c(C(=O)Nc2cccc(F)c2N2CCN(C)CC2)c(O)c2ccccc21 [581(02)]		7.7
CC(C)Cn1c(=O)c(C(=O)Nc2cc(F)cc(N3CCN(C)CC3)c2)c(O)c2ccccc21 [583(01)]		8.1
CC(C)Cn1c(=O)c(C(=O)Nc2cc(F)cc(N3CCN(C)CC3)c2)c(O)c2ccccc21 [583(02)]		6.3
CC(C)Cn1c(=O)c(C(=O)Nc2ccc(F)c(N3CCN(C)CC3)c2)c(O)c2ccccc21 [584(01)]		4.5
CC(C)Cn1c(=O)c(C(=O)Nc2cccc(F)c2)c(O)c2c(N3CCN(C)CC3)cccc21 [588(01)]		10.3
CC(C)Cn1c(=O)c(C(=O)Nc2cccc(F)c2)c(O)c2c(N3CCN(C)CC3)cccc21 [588(02)]		9.8
O=C(Nc1ccccc1)c1c(O)c2c(n(Cc3ccco3)c1=O)CCCC2 [SSTN-379]		27.5
CCCn1c2c(c(O)c(C(=O)Nc3ccccn3)c1=O)CCCC2 [SSTN-401]		21.6
O=C(Nc1ncccc1O)c1c(O)c2c([nH]c1=O)CCCC2 [SSTN-402]		12.1
Cc1ccnc(NC(=O)c2c(O)c3ccccc3n(Cc3ccccc3)c2=O)c1 [SSTN-410]		21.9

SMILES	IC50 [2] [µM]	IC50 [1] [µM]
O=C(Nc1ccc(F)cc1)c1c(O)c2cccnc2n(-c2ccccc2)c1=O [SSTN-443]		9
CC(C)Cn1c(=O)c(C(=O)Nc2cccc(F)c2)c(O)c2ccc(Br)cc21 [SSTN-567, 7-bromo-N-(3-fluorophenyl)-4-hydroxy-1-isobutyl-2-oxo-1,2-dihydroquinoline-3-carboxamide]		33.2
CC(C)Cn1c(=O)c(C(=O)Nc2ccccc2N2CCN(C)CC2)c(O)c2ccccc21 [SSTN-568_HCl salt, 4-hydroxy-1-isobutyl-N-(2-(4-methylpiperazin-1-yl)phenyl)-2-oxo-1,2-dihydroquinoline-3-carboxamide hydrochloride salt]	6.83	
CC(C)Cn1c(=O)c(C(=O)Nc2ccc(N3CCN(C)CC3)cc2)c(O)c2ccccc21 [SSTN-569_HCl salt, 4-hydroxy-1-isobutyl-N-(4-(4-methylpiperazin-1-yl)phenyl)-2-oxo-1,2-dihydroquinoline-3-carboxamide hydrochloride salt]	4.93	
CC(C)Cn1c(=O)c(C(=O)Nc2ccc(F)cc2N2CCN(C)CC2)c(O)c2ccccc21 [SSTN-570_HCl salt, N-(4-fluoro-2-(4-methylpiperazin-1-yl)phenyl)-4-hydroxy-1-isobutyl-2-oxo-1,2-dihydroquinoline-3-carboxamide hydrochloride salt]	5.6	
CC(C)Cn1c(=O)c(C(=O)Nc2cc(F)ccc2N2CCN(C)CC2)c(O)c2ccccc21 [SSTN-571_HCl salt, N-(5-fluoro-2-(4-methylpiperazin-1-yl)phenyl)-4-hydroxy-1-isobutyl-2-oxo-1,2-dihydroquinoline-3-carboxamide hydrochloride salt]	7.87	
CC(C)Cn1c(=O)c(C(=O)Nc2ccc(N3CCN(C)CC3)c(F)c2)c(O)c2ccccc21 [SSTN-572_HCl salt, N-(3-fluoro-4-(4-methylpiperazin-1-yl)phenyl)-4-hydroxy-1-isobutyl-2-oxo-1,2-dihydroquinoline-3-carboxamide hydrochloride salt]	3.4	
CC(C)Cn1c(=O)c(C(=O)Nc2cccc(F)c2)c(O)c2cc(N3CCN(C)CC3)ccc21 [SSTN-577_HCl salt, N-(3-fluorophenyl)-4-hydroxy-1-isobutyl-6-(4-methylpiperazin-1-yl)-2-oxo-1,2-dihydroquinoline-3-carboxamide hydrochloride salt]	6.44	
Cc1cccnc1NC(=O)c1c(O)c2ccc(N3CCN(C)CC3)cc2n(CC(C)C)c1=O [SSTN-580_HCl salt, 4-hydroxy-1-isobutyl-7-(4-methylpiperazin-1-yl)-N-(3-methylpyridin-2-yl)-2-oxo-1,2-dihydroquinoline-3-carboxamide hydrochloride salt]	14	
Cc1cccnc1NC(=O)c1c(O)c2ccc(N3CCN(C)CC3)cc2n(CC(C)C)c1=O [SSTN-580_TFA salt, 4-hydroxy-1-isobutyl-7-(4-methylpiperazin-1-yl)-N-(3-methylpyridin-2-yl)-2-oxo-1,2-dihydroquinoline-3-carboxamide TFA salt]	13.3	
CC(C)Cn1c(=O)c(C(=O)Nc2cccc(F)c2N2CCN(C)CC2)c(O)c2ccccc21 [SSTN-581_Formate salt, N-(3-fluoro-2-(4-methylpiperazin-1-yl)phenyl)-4-hydroxy-1-isobutyl-2-oxo-1,2-dihydroquinoline-3-carboxamide formate salt]	7.76	
CC(C)Cn1c(=O)c(C(=O)Nc2cccc(F)c2N2CCN(C)CC2)c(O)c2ccccc21 [SSTN-581_HCl salt, N-(3-fluoro-2-(4-methylpiperazin-1-yl)phenyl)-4-hydroxy-1-isobutyl-2-oxo-1,2-dihydroquinoline-3-carboxamide hydrochloride salt]	7.68	
CC(C)Cn1c(=O)c(C(=O)Nc2cc(F)c(N3CCN(C)CC3)c(F)c2)c(O)c2ccccc21 [SSTN-582_HCl salt, N-(3,5-difluoro-4-(4-methylpiperazin-1-yl)phenyl)-4-hydroxy-1-isobutyl-2-oxo-1,2-dihydroquinoline-3-carboxamide hydrochloride salt]	1.9	
CC(C)Cn1c(=O)c(C(=O)Nc2cc(F)cc(N3CCN(C)CC3)c2)c(O)c2ccccc21 [SSTN-583_HCl salt, N-(3-fluoro-5-(4-methylpiperazin-1-yl)phenyl)-4-hydroxy-1-isobutyl-2-oxo-1,2-dihydroquinoline-3-carboxamide hydrochloride salt]	6.33	
CC(C)Cn1c(=O)c(C(=O)Nc2ccc(F)c(N3CCN(C)CC3)c2)c(O)c2ccccc21 [SSTN-584_Formate salt, N-(4-fluoro-3-(4-methylpiperazin-1-yl)phenyl)-4-hydroxy-1-isobutyl-2-oxo-1,2-dihydroquinoline-3-carboxamide formate salt]	4.54	
CC(C)Cn1c(=O)c(C(=O)Nc2ccc(F)c(N3CCN(C)CC3)c2)c(O)c2ccccc21 [SSTN-584_HCl salt, N-(4-fluoro-3-(4-methylpiperazin-1-yl)phenyl)-4-hydroxy-1-isobutyl-2-oxo-1,2-dihydroquinoline-3-carboxamide hydrochloride salt]	6.04	
